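Tested at 5 concentrations; 48 h exposure; 96-well plates; endpoints linearly interpolated, else capped at highest concentration. At the GI50, growth is halved. The concentration for full growth arrest is given as TGI.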
What was measured:
Assay in all cases: NCI-60 cell line screen, 48 h
[1] = tested on: 786-0 renal
[2] = tested on: A498 renal
[3] = tested on: A549 NSCLC
[4] = tested on: ACHN renal
[5] = tested on: BT-549 breast
[6] = tested on: CAKI-1 renal
[7] = tested on: CCRF-CEM leukemia
[8] = tested on: COLO 205 colon
[9] = tested on: DU-145 prostate
[10] = tested on: EKVX NSCLC
[11] = tested on: HCC-2998 colon
[12] = tested on: HCT-116 colon
[13] = tested on: HCT-15 colon
[14] = tested on: HL-60(TB) leukemia
[15] = tested on: HOP-62 NSCLC
[16] = tested on: HOP-92 NSCLC
[17] = tested on: HS 578T breast
[18] = tested on: HT29 colon
[19] = tested on: IGROV1 ovarian
[20] = tested on: K-562 leukemia
[21] = tested on: KM12 colon
[22] = tested on: LOX IMVI melanoma
[23] = tested on: M14 melanoma
[24] = tested on: MALME-3M melanoma
[25] = tested on: MCF7 breast
[26] = tested on: MDA-MB-231 breast
[27] = tested on: MDA-MB-435
[28] = tested on: MOLT-4 leukemia
[29] = tested on: NCI-H226 lung
[30] = tested on: NCI-H23 lung
[31] = tested on: NCI-H460 lung
[32] = tested on: NCI-H522 lung
[33] = tested on: NCI/ADR-RES ovarian
[34] = tested on: OVCAR-3 ovarian
[35] = tested on: OVCAR-4 ovarian
[36] = tested on: OVCAR-5 ovarian
[37] = tested on: OVCAR-8 ovarian
[38] = tested on: PC-3 prostate
[39] = tested on: RPMI-8226 leukemia
[40] = tested on: RXF 393 renal
[41] = tested on: SF-268 CNS
[42] = tested on: SF-295 CNS
[43] = tested on: SF-539 CNS
[44] = tested on: SK-MEL-2 melanoma
[45] = tested on: SK-MEL-28 melanoma
[46] = tested on: SK-MEL-5 melanoma
[47] = tested on: SK-OV-3 ovarian
[48] = tested on: SN12C renal
[49] = tested on: SNB-19 CNS
[50] = tested on: SNB-75 CNS
[51] = tested on: SR leukemia
[52] = tested on: SW-620 colon
[53] = tested on: T-47D breast
[54] = tested on: TK-10 renal
[55] = tested on: U251 CNS
[56] = tested on: UACC-257 melanoma
[57] = tested on: UACC-62 melanoma
[58] = tested on: UO-31 renal

CCCCCCCCCCCCOC1C(CNC(=O)C2OC3OC(C)(C)OC3C2NC(=O)CN2CCCCCC2)OC2OC(C)(C)OC21 (stereo unspecified)
GI50 [1]: 10.4 µM | TGI [1]: 23.4 µM | GI50 [2]: 13 µM | TGI [2]: 26.3 µM | GI50 [3]: 4.46 µM | TGI [3]: 17.8 µM | GI50 [4]: 10.7 µM | TGI [4]: 25.3 µM | GI50 [5]: 9.06 µM | TGI [5]: 22.1 µM | GI50 [6]: 13 µM | TGI [6]: 26.8 µM | GI50 [7]: 4.58 µM | TGI [7]: 15.9 µM | GI50 [8]: 2.49 µM | TGI [8]: 6.76 µM | GI50 [9]: 8.23 µM | TGI [9]: 20.5 µM | GI50 [10]: 8.15 µM | TGI [10]: 20.7 µM | GI50 [11]: 6 µM | TGI [11]: 19.3 µM | GI50 [12]: 4.06 µM | TGI [12]: 12.8 µM | GI50 [13]: 4.03 µM | TGI [13]: 14.8 µM | GI50 [14]: 1.87 µM | TGI [14]: 4.39 µM | GI50 [15]: 6.48 µM | TGI [15]: 18.1 µM | GI50 [16]: 9.4 µM | TGI [16]: 22.8 µM | GI50 [17]: 3.79 µM | TGI [17]: 18.5 µM | GI50 [18]: 1.87 µM | TGI [18]: 3.74 µM | GI50 [19]: 5.03 µM | TGI [19]: 15.2 µM | GI50 [20]: 3.43 µM | TGI [20]: 10.9 µM | GI50 [21]: 5.44 µM | TGI [21]: 19.1 µM | GI50 [22]: 3.17 µM | TGI [22]: 9.25 µM | GI50 [23]: 1.79 µM | TGI [23]: 3.47 µM | GI50 [24]: 1.99 µM | TGI [24]: 4.1 µM | GI50 [25]: 3.7 µM | TGI [25]: 14.3 µM | GI50 [26]: 9.7 µM | TGI [26]: 23 µM | GI50 [27]: 2.72 µM | TGI [27]: 7.9 µM | GI50 [28]: 3.12 µM | TGI [28]: 9.85 µM | GI50 [29]: 16.7 µM | TGI [29]: 38.1 µM | GI50 [30]: 10.9 µM | TGI [30]: 24.8 µM | GI50 [31]: 5.19 µM | TGI [31]: 18.4 µM | GI50 [32]: 5.07 µM | TGI [32]: 17.8 µM | GI50 [33]: 4.14 µM | TGI [33]: 15.7 µM | GI50 [34]: 8.39 µM | TGI [34]: 23.8 µM | GI50 [35]: 6.47 µM | TGI [35]: 20 µM | GI50 [36]: 6.44 µM | TGI [36]: 19.5 µM | GI50 [37]: 11 µM | TGI [37]: 25.5 µM | GI50 [38]: 4.57 µM | TGI [38]: 15.8 µM | GI50 [39]: 3.28 µM | TGI [39]: 12.5 µM | GI50 [40]: 2.87 µM | TGI [40]: 8.6 µM | GI50 [41]: 5.27 µM | TGI [41]: 20.8 µM | GI50 [42]: 6.75 µM | TGI [42]: 20.4 µM | GI50 [43]: 3.54 µM | TGI [43]: 8.58 µM | GI50 [44]: 5.69 µM | TGI [44]: 12 µM | GI50 [45]: 1.72 µM | TGI [45]: 3.4 µM | GI50 [46]: 1.85 µM | TGI [46]: 3.41 µM | GI50 [47]: 16.2 µM | TGI [47]: 30.8 µM | GI50 [48]: 9.64 µM | TGI [48]: 24.6 µM | GI50 [49]: 10.3 µM | TGI [49]: 23.8 µM | GI50 [50]: 8.49 µM | TGI [50]: 21.4 µM | GI50 [51]: 2.44 µM | TGI [51]: 4.91 µM | GI50 [52]: 3.38 µM | TGI [52]: 11.1 µM | GI50 [53]: 7.78 µM | TGI [53]: 22.8 µM | GI50 [54]: 8.27 µM | TGI [54]: 22.5 µM | GI50 [55]: 4.91 µM | TGI [55]: 15.9 µM | GI50 [56]: 3.14 µM | TGI [56]: 8.75 µM | GI50 [57]: 1.83 µM | TGI [57]: 3.48 µM | GI50 [58]: 6.22 µM | TGI [58]: 18 µM
